In patent US6777435B1, “Crystals of an oxyiminoalkanoic acid derivative and their use as antidiabetics” (Takeda Chemical Industries, Ltd., priority 1999, dated 2004):

What was measured:
KKA^γ mice = test: Hypoglycemic and hypolipidemic actions in mice; assay type: in vivo; settings: 0.01% in powdery diet for four days, percentage reduction compared with non-treatment group
Protocol: Crystals of the test compound were mixed in a powdery diet (CE-2; Japan Clea) at a concentration of 0.01%, and freely given to KKA^γ mice (11 weeks old; five mice in a group), a model of obesity and type 2 diabetes mellitus, for four days. During that period, water was given freely. Blood was sampled from orbital venous plexus and measurement of the components was carried out using serum. Glucose was quantified using L-type Wako Glu2 (Wako Pure Chemicals) while triglyceride was quantified using Iatro-MA701 TG kit (Iatron Laboratories Inc.). The value of treatment group is represented as percentage reduction compared with the non-treatmet group.

Wistar fatty rats = test: Hypoglycemic and hypolipidemic actions in rats; assay type: in vivo; settings: 1 mg/kg/day orally for seven days, percentage reduction compared with non-treatment group
Protocol: Crystals of the test compound were suspended in an amount of 1 mg/5 ml in a 0.5% methyl cellulose solution and compulsorily administered orally at the dose of 1 mg/kg/day to Wistar fatty rats (27-30 weeks old; five rats in a group), a model of obesity and type 2 diabetes mellitus, for seven days successively. During that period, diet and water were given freely. Blood was sampled from tail vein and measurement of the components was carried out using serum. Glucose was quantified using L-type Wako Glu2 (Wako Pure Chemicals) while triglyceride was quantified using L-type Wako TG.H (Wako Pure Chemical). The value of treatment group is represented as percentage reduction compared with the non-treatmet group.

Compound	Hypoglycemic Action (%) (KKA^γ mice; serum glucose)	Hypolipemic Action (%) (KKA^γ mice; serum triglyceride)	Hypoglycemic Action (%) (Wistar fatty rats; serum glucose)	Hypolipemic Action (%) (Wistar fatty rats; serum triglyceride)
Cc1oc(-c2ccccc2)nc1COc1ccc(CO/N=C(\CCC(=O)O)c2ccccc2)cc1 [Crystals of Reference Example 4, (E)-4-[4-(5-methyl-2-phenyl-4-oxazolylmethoxy)benzyloxyimino]-4-phenylbutyric acid]	42%	61%		
Cc1oc(-c2ccccc2)nc1COc1ccc(CO/N=C(\CCC(=O)O)c2ccccc2)cc1 [Crystals of Example 1, (E)-4-[4-(5-methyl-2-phenyl-4-oxazolylmethoxy)benzyloxyimino]-4-phenylbutyric acid]			60%	85%
